# Measured values reported in the supplement of paper PMC10307832.
# Key:
# Test in all cases: relative viability (nuclei count vs DMSO), 5 days (fraction); higher = more cells survive
# PC-14 = system: PC-14
# Outline: (§1)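 Five library-drug doses in √10 steps were combined with a fixed anchor-drug dose, or a single drug was given alone, by pin tool to lung cancer cell lines in 1536-well plates the day after seeding. Nuclei were stained and counted after 5 days. Relative viability is the nuclei count in treated wells over that in vehicle wells, taken as the median of duplicate plates.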
# NCI-H1563 = system: NCI-H1563
# Outline: as §1
# HARA = system: HARA
# Outline: as §1
# LU99A = system: LU99A
# Outline: as §1
# HOP-62 = system: HOP-62
# Outline: as §1
# NCI-H2087 = system: NCI-H2087
# Outline: as §1
# LCLC-97TM1 = system: LCLC-97TM1
# Outline: as §1
# CAL-12T = system: CAL-12T
# Outline: as §1
# HCC-366 = system: HCC-366
# Outline: as §1
# HCC-827 = system: HCC-827
# Outline: as §1
# LC-2-ad = system: LC-2-ad
# Outline: as §1
# COR-L23 = system: COR-L23
# Outline: as §1
# BEN = system: BEN
# Outline: as §1
# HCC-15 = system: HCC-15
# Outline: as §1
# HCC-44 = system: HCC-44
# Outline: as §1
# NCI-H727 = system: NCI-H727
# Outline: as §1
# NCI-H2126 = system: NCI-H2126
# Outline: as §1
# NCI-H2009 = system: NCI-H2009
# Outline: as §1
# COR-L 105 = system: COR-L 105
# Outline: as §1
# NCI-H1993 = system: NCI-H1993
# Outline: as §1
# LXF-289 = system: LXF-289
# Outline: as §1
# PC-3 [JPC-3] = system: PC-3 [JPC-3]
# Outline: as §1
smiles,measurement,setting,value
CCCCCCCCCCCC1=C(O)C(=O)C=C(O)C1=O [Embelin] + CC(C)C[C@H](NC(=O)[C@H](Cc1ccccc1)NC(=O)c1cnccn1)B(O)O [Bortezomib] (partner 0.002 µM),relative viability,PC-14; first compound 0.08 µM,0.858
same,relative viability,PC-14; first compound 0.8 µM,0.899
same,relative viability,PC-14; first compound 2.53 µM,0.84
same,relative viability,PC-14; first compound 8 µM,0.87
same,relative viability,NCI-H1563; first compound 0.08 µM,1.06
same,relative viability,NCI-H1563; first compound 0.8 µM,0.953
same,relative viability,NCI-H1563; first compound 2.53 µM,0.787
same,relative viability,NCI-H1563; first compound 8 µM,0.753
same,relative viability,HARA; first compound 0.08 µM,1.05
same,relative viability,HARA; first compound 0.8 µM,1.25
same,relative viability,HARA; first compound 2.53 µM,1.13
same,relative viability,HARA; first compound 8 µM,1.26
same,relative viability,LU99A; first compound 0.08 µM,1.37
same,relative viability,LU99A; first compound 0.8 µM,1.23
same,relative viability,LU99A; first compound 2.53 µM,1.1
same,relative viability,LU99A; first compound 8 µM,1.07
same,relative viability,HOP-62; first compound 0.08 µM,0.924
same,relative viability,HOP-62; first compound 0.8 µM,0.846
same,relative viability,HOP-62; first compound 2.53 µM,1.15
same,relative viability,HOP-62; first compound 8 µM,0.727
same,relative viability,NCI-H2087; first compound 0.08 µM,0.83
same,relative viability,NCI-H2087; first compound 0.8 µM,0.807
same,relative viability,NCI-H2087; first compound 2.53 µM,0.735
same,relative viability,NCI-H2087; first compound 8 µM,0.935
same,relative viability,LCLC-97TM1; first compound 0.08 µM,0.812
same,relative viability,LCLC-97TM1; first compound 0.8 µM,0.774
same,relative viability,LCLC-97TM1; first compound 2.53 µM,0.29
same,relative viability,LCLC-97TM1; first compound 8 µM,0.907
same,relative viability,CAL-12T; first compound 0.08 µM,0.996
same,relative viability,CAL-12T; first compound 0.8 µM,1.27
same,relative viability,CAL-12T; first compound 8 µM,1.04
same,relative viability,HCC-366; first compound 0.08 µM,1.05
same,relative viability,HCC-366; first compound 0.8 µM,1.05
same,relative viability,HCC-366; first compound 2.53 µM,1.43
same,relative viability,HCC-366; first compound 8 µM,1.1
same,relative viability,HCC-827; first compound 0.08 µM,1.12
same,relative viability,HCC-827; first compound 0.8 µM,1.07
same,relative viability,HCC-827; first compound 2.53 µM,1.06
same,relative viability,HCC-827; first compound 8 µM,1.17
same,relative viability,LC-2-ad; first compound 0.08 µM,0.959
same,relative viability,LC-2-ad; first compound 0.8 µM,1.1
same,relative viability,LC-2-ad; first compound 2.53 µM,1.05
same,relative viability,LC-2-ad; first compound 8 µM,1.02
same,relative viability,COR-L23; first compound 0.08 µM,1
same,relative viability,COR-L23; first compound 0.8 µM,1.1
same,relative viability,COR-L23; first compound 2.53 µM,1.21
same,relative viability,COR-L23; first compound 8 µM,1.21
same,relative viability,BEN; first compound 0.08 µM,0.85
same,relative viability,BEN; first compound 0.8 µM,1.04
same,relative viability,BEN; first compound 2.53 µM,0.941
same,relative viability,BEN; first compound 8 µM,0.899
same,relative viability,HCC-15; first compound 0.08 µM,1.07
same,relative viability,HCC-15; first compound 0.8 µM,1.02
same,relative viability,HCC-15; first compound 2.53 µM,1.18
same,relative viability,HCC-15; first compound 8 µM,1.11
same,relative viability,HCC-44; first compound 0.08 µM,0.838
same,relative viability,HCC-44; first compound 0.8 µM,0.865
same,relative viability,HCC-44; first compound 2.53 µM,0.864
same,relative viability,HCC-44; first compound 8 µM,0.897
same,relative viability,NCI-H727; first compound 0.08 µM,0.813
same,relative viability,NCI-H727; first compound 0.8 µM,0.997
same,relative viability,NCI-H727; first compound 2.53 µM,1.02
same,relative viability,NCI-H727; first compound 8 µM,0.798
same,relative viability,NCI-H2126; first compound 0.08 µM,1.14
same,relative viability,NCI-H2126; first compound 0.8 µM,1.11
same,relative viability,NCI-H2126; first compound 2.53 µM,1.08
same,relative viability,NCI-H2126; first compound 8 µM,1.19
same,relative viability,NCI-H2009; first compound 0.08 µM,1.07
same,relative viability,NCI-H2009; first compound 0.8 µM,1.18
same,relative viability,NCI-H2009; first compound 2.53 µM,0.916
same,relative viability,NCI-H2009; first compound 8 µM,0.9
same,relative viability,COR-L 105; first compound 0.08 µM,0.81
same,relative viability,COR-L 105; first compound 0.8 µM,0.901
same,relative viability,COR-L 105; first compound 2.53 µM,0.765
same,relative viability,COR-L 105; first compound 8 µM,0.961
same,relative viability,NCI-H1993; first compound 0.08 µM,1.16
same,relative viability,NCI-H1993; first compound 0.8 µM,1.14
same,relative viability,NCI-H1993; first compound 2.53 µM,1.22
same,relative viability,NCI-H1993; first compound 8 µM,1.08
same,relative viability,LXF-289; first compound 0.08 µM,1.01
same,relative viability,LXF-289; first compound 0.8 µM,1
same,relative viability,LXF-289; first compound 2.53 µM,1
same,relative viability,LXF-289; first compound 8 µM,1.05
same,relative viability,PC-3 [JPC-3]; first compound 0.08 µM,0.831
same,relative viability,PC-3 [JPC-3]; first compound 0.8 µM,0.908
same,relative viability,PC-3 [JPC-3]; first compound 2.53 µM,0.927
same,relative viability,PC-3 [JPC-3]; first compound 8 µM,0.806
